Measured values as given in ChEMBL document CHEMBL1136564, “Sordaricin antifungal agents” (2003).
Converted amounts (≈) assume the structure as drawn.

Columns and labels:
Nakaseomyces glabratus = experiment: Minimum inhibitory concentration required to inhibit 90 to 100% visible growth of Candida glabrata; format: functional
Candida albicans = experiment: Minimum inhibitory concentration to inhibit 90 to 100% visible growth of Candida albicans; format: functional

| MIC (Nakaseomyces glabratus) [µg/mL] | MIC (Candida albicans) [µg/mL] | Structure (SMILES) |
| --- | --- | --- |
| > 128 | > 128 | CC(C)C1=CC2CC3(C=O)C4CC[C@@H](C)C4CC2(CCOC(=O)[C@@H]2CCC(=O)N2)C13C(=O)O (some centres undefined) |
| > 128 | > 128 | CC(C)C1=CC2CC3(C=O)C4CC[C@@H](C)C4CC2(CCOC(=O)c2cccn2C)C13C(=O)O (some centres undefined) |
| > 128 | 8 (≈ 15.4 µM) | CC(C)C1=CC2CC3(C=O)C4CC[C@@H](C)C4CC2(CCOC(=O)Cc2csc4ccccc24)C13C(=O)O (some centres undefined) |
| > 128 | > 128 | CC(C)C1=CC2CC3(C=O)C4CC[C@@H](C)C4CC2(CCOC(=O)c2cc[n+]([O-])cc2)C13C(=O)O (some centres undefined) |
| > 128 | 4 (≈ 8.25 µM) | CC(C)C1=CC2CC3(C=O)C4CC[C@@H](C)C4CC2(CCOC(=O)c2ccc(Cl)cc2)C13C(=O)O (some centres undefined) |
| 64 (≈ 120 µM) | 2 (≈ 3.75 µM) | CC(C)C1=CC2CC3(C=O)C4CC[C@@H](C)C4CC2(CCOC(=O)Cc2ccc(Br)o2)C13C(=O)O (some centres undefined) |
| > 128 | > 128 | CC(C)C1=CC2CC3(C=O)C4CC[C@@H](C)C4CC2(CCOC(=O)CCc2c[nH]c4ccccc24)C13C(=O)O (some centres undefined) |
| 16 (≈ 37.3 µM) | 0.5 (≈ 1.17 µM) | CC(C)=CC(=O)OCCC12CC3C(CC[C@H]3C)C3(C=O)CC1C=C(C(C)C)C32C(=O)O (some centres undefined) |
| > 128 | 64 (≈ 124 µM) | CC(C)C1=CC2CC3(C=O)C4CC[C@@H](C)C4CC2(CCOC(=O)CCNC(=O)OC(C)(C)C)C13C(=O)O (some centres undefined) |
| > 128 | > 128 | CC(C)C1=CC2CC3(C=O)C4CC[C@@H](C)C4CC2(CCOC(=O)c2cc4ccccc4o2)C13C(=O)O (some centres undefined) |
| > 128 | 128 (≈ 252 µM) | CCCOc1ccc(C(=O)OCCC23CC4C(CC[C@H]4C)C4(C=O)CC2C=C(C(C)C)C43C(=O)O)cc1 (some centres undefined) |
| > 128 | > 128 | CC(C)C1=CC2CC3(C=O)C4CC[C@@H](C)C4CC2(CCOC(=O)c2cccc(C(=O)O)n2)C13C(=O)O (some centres undefined) |
| > 128 | 128 (≈ 254 µM) | CC(C)C1=CC2CC3(C=O)C4CC[C@@H](C)C4CC2(CCOC(=O)CNC(=O)OC(C)(C)C)C13C(=O)O (some centres undefined) |
| > 128 | > 128 | CC(C)C1=CC2CC3(C=O)C4CC[C@@H](C)C4CC2(CCOC(=O)c2cc(C(=O)O)[nH]n2)C13C(=O)O (some centres undefined) |
| > 128 | 128 (≈ 242 µM) | CC(C)C1=CC2CC3(C=O)C4CC[C@@H](C)C4CC2(CCOC(=O)c2ccc([N+](=O)[O-])cc2Cl)C13C(=O)O (some centres undefined) |
| > 128 | > 128 | CC(C)C1=CC2CC3(C=O)C4CC[C@@H](C)C4CC2(CCOC(=O)c2ccc(Br)cc2)C13C(=O)O (some centres undefined) |

| MIC (Nakaseomyces glabratus) [µg/mL] | MIC (Candida albicans) [µg/mL] | Structure (SMILES) |
| --- | --- | --- |
| > 128 | 32 (≈ 71 µM) | CC(C)C1=CC2CC3(C=O)C4CC[C@@H](C)C4CC2(CCOC(=O)c2ccccc2)C13C(=O)O (some centres undefined) |
| > 128 | > 128 | CCCCCCCCCCCCCCCCC(O)C12C[C@@H]3[C@H](C)CC[C@H]3C3(C=O)CC1C=C(C(C)C)[C@@]23C(=O)O (some centres undefined) |
| 8 (≈ 17.5 µM) | < 0.06 | CC(C)C1=CC2CC3(C=O)C4CC[C@@H](C)C4CC2(CCOC(=O)C2CCCCC2)C13C(=O)O (some centres undefined) |
| > 128 | > 128 | CC(C)C1=CC2CC3(C=O)C4CC[C@@H](C)C4CC2(CCOC(=O)c2cnc(O)nc2O)C13C(=O)O (some centres undefined) |
| 64 (≈ 154 µM) | 2 (≈ 4.8 µM) | CC(C)CCOCCC12CC3C(CC[C@H]3C)C3(C=O)CC1C=C(C(C)C)C32C(=O)O (some centres undefined) |
| > 128 | 2 (≈ 3.47 µM) | CC(C)C1=CC2CC3(C=O)C4CC[C@@H](C)C4CC2(CCOC(=O)c2ccc(I)cc2)C13C(=O)O (some centres undefined) |
| > 128 | 0.5 (≈ 0.979 µM) | CSc1ccc(CC(=O)OCCC23CC4C(CC[C@H]4C)C4(C=O)CC2C=C(C(C)C)C43C(=O)O)cc1 (some centres undefined) |
| > 128 | > 128 | CC(C)C1=CC2CC3(C=O)C4CC[C@@H](C)C4CC2(CCOC(=O)c2cccs2)C13C(=O)O (some centres undefined) |
| 128 (≈ 310 µM) | 128 (≈ 310 µM) | CC(C)C1=CC2CC3(C=O)[C@@H]4CC[C@@H](C)[C@H]4CC2(C(O)C#CC(C)(C)C)[C@]13C(=O)O (some centres undefined) |
| 128 (≈ 235 µM) | 16 (≈ 29.4 µM) | CC(C)C1=CC2CC3(C=O)C4CC[C@@H](C)C4CC2(CCOC(=O)[C@@H]2CCCN2C(=O)OC(C)(C)C)C13C(=O)O (some centres undefined) |
| > 128 | 32 (≈ 61.8 µM) | CC(C)C1=CC2CC3(C=O)C4CC[C@@H](C)C4CC2(CCOC(=O)[C@H](C)NC(=O)OC(C)(C)C)C13C(=O)O (some centres undefined) |
| > 128 | 4 (≈ 7.54 µM) | CC(C)C1=CC2CC3(C=O)C4CC[C@@H](C)C4CC2(CCOC(=O)c2cncc(Br)c2)C13C(=O)O (some centres undefined) |
| > 128 | 8 (≈ 18.2 µM) | CC(C)C1=CC2CC3(C=O)C4CC[C@@H](C)C4CC2(CCOC(=O)c2ccco2)C13C(=O)O (some centres undefined) |
| > 128 | > 128 | CC(C)C1=CC2CC3(C=O)[C@@H]4CC[C@@H](C)[C@H]4CC2(C(O)CCc2ccccc2)[C@]13C(=O)O (some centres undefined) |
| > 128 | 4 (≈ 6.9 µM) | CC(C)C1=CC2CC3(C=O)C4CC[C@@H](C)C4CC2(CCOC(=O)[C@H](NC(=O)OC(C)(C)C)c2ccccc2)C13C(=O)O (some centres undefined) |
| > 128 | > 128 | CC(C)C1=CC2CC3(C=O)C4CC[C@@H](C)C4CC2(CCOC(=O)c2ccc4[nH]cnc4c2)C13C(=O)O (some centres undefined) |
